Among the data in patent US8343966B2, “Organic compounds” (Novartis AG, priority 2008, dated 2013) are IC50 values, retold here.

This assay addresses T1, human ALK5 (ALK5 T204D kinase domain) (Homo sapiens, UniProt P36897, T204D).
T1 construct: The kinase domain of human ALK5 (amino acids 200-503); made in house; host or cells: insect cells (baculovirus)
T1 sequence (P36897 200-503 T204D): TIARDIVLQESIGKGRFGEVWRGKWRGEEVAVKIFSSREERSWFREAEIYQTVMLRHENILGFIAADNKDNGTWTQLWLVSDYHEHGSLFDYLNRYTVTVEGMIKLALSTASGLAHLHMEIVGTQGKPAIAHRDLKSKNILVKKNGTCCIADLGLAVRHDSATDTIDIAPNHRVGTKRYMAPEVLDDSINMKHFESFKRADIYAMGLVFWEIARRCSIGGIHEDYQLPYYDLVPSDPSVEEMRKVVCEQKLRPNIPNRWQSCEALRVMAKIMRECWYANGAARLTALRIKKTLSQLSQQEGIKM
The experiment in a line: ALK5 kinase assay, [33P] phosphate incorporation into casein. It is filed as biochemical. The following applies: casein substrate, 1 μM unlabelled ATP. Here is the method: The kinase activity of ALK5 is assessed by measuring radiolabelled phosphate [33P] incorporation in to the generic substrate, casein. The kinase domain of human ALK5 (amino acids 200-503) is fused to an N-terminal histidine tag. The kinase activity of ALK5 is rendered constitutive via point mutation at amino acid 204 (threonine to aspartate modification, ALK5 T204D) and the kinase construct is engineered to be expressed from a baculovirus expression construct in insect cells. The purified, recombinantly-expressed histidine-tagged ALK5 T204D protein is dissolved at 5.4 mg/ml in 50 mM Tris-HCl pH 8.0, 150 mM NaCl, 5 mM DTT. ALK5 T204D is dissolved to 2.5 μg/ml in assay buffer (Assay buffer: 20 mM Tris-HCl pH 7.4, 10 mM MgCl2, 2 mM MnCl2) on the day of use.
Test compounds and reference compounds are dissolved in assay buffer without DTT containing 5% (v/v) DMSO. Stock solutions of test and reference compounds are diluted in assay buffer with DTT (1.25 mM) containing 4.5% (v/v) DMSO. 10 μl of test or reference compound are added to the appropriate wells of 96 well U-bottomed plate. Total enzyme activity is determined by measuring ALK5 T204D activity in the absence of ALK5 kinase inhibitor reference compounds. Non-specific binding (NSB) is determined by measuring the activity of ALK5 T204D in the presence of ALK5 kinase inhibitor reference compounds. 10 μl of dephosphorylated casein stock solution (dephosphorylated casein is dissolved in ddH2O at 20 mg/ml) is added per well (200 μg/well final assay concentration). 20 μl of ALK5 T204D (2.5 μg/ml solution) is added per well (50 ng/well final assay concentration). The plates are left to incubate at room temperature for 10 minutes.
10 μl of ATP mix is added to the well to initiate the reaction (0.66 nM [^33P]ATP/1 μM unlabelled ATP/well final assay concentration). The ATP mix is prepared as follows, unlabelled ATP (3 mM) is dissolved in ddH2O and pH adjusted to 7.4. The stock concentration of [^33P]ATP is 10 μCi/μl. The appropriate volume of [^33P]ATP is added to unlabelled ATP solution such that the final assay concentration per well is 0.1 μCi. Following addition of the ATP mix, the plates are incubated at room temperature for 50 minutes. The kinase reaction is terminated by the addition of 50 μL Stop Buffer (20 mM Tris-HCl pH 7.4, 10 mM EDTA).
75 μl/well from the reaction plate is transferred to a Multiscreen-IP plate (MultiScreen-IP plates are prepared by added 50 μL of 70% (v/v) ethanol per well and incubated for 5 minutes at room temperature. The ethanol is removed by aspiration via a MultiScreen HTS Vacuum Manifold unit (Millipore, Cat no: MSVMHT500). The plates are washed twice by adding 200 μl/well ddH2O). The MultiScreen-IP plate is incubated at room temperature for 30 minutes to allowing binding of casein to the plate. The MultiScreen-IP plates are washed three times by adding 200 μl/well 100 mM phosphoric acid solution and the gasket is carefully removed from the back of the MultiScreen-IP plate and the plate dried in the oven for 30 minutes. The MultiScreen-IP plate is backsealed, 50 μL of Microscint™20 is added, then the plates are topsealed and radiolabelled casein detected and quantified on a TopCount™ plate-reader using the ^33P scintillation protocol.
The molecule `c1cncc(-c2cc(NCCc3c[nH]c4ccccc34)nc(-c3ccco3)c2)c1` [Example 1.1, (6′-Furan-2-yl-[3,4′]bipyridinyl-2′-yl)-[2-(1H-indol-3-yl)-ethyl]-amine] returned an IC50 of 16 nM.

On to `c1cncc(-c2cc(NCc3cccc4[nH]ccc34)nc(-c3ccco3)c2)c1` [Example 1.2, (6′-Furan-2-yl-[3,4′]bipyridinyl-2′-yl)-(1H-indol-4-ylmethyl)-amine], for which the IC50 came out at 19 nM. The IC50 values of the last two molecules are within 1.5-fold of each other.

In turn, `Cc1ccc(-c2cc(-c3cccnc3)cc(NCCc3c[nH]c4ccccc34)n2)o1` [Example 1.3, [2-(1H-Indol-3-yl)-ethyl]-[6′-(5-methyl-furan-2-yl)-[3,4′]bipyridinyl-2′-yl]-amine] gave an IC50 of 23 nM.

The molecule `c1ccc(-c2cc(-c3cccnc3)cc(NCCc3cccc4[nH]ccc34)n2)nc1` [Example 1.6, [2-(1H-Indol-4-yl)-ethyl]-[2,2′;4′,3″]terpyridin-6′-yl-amine] came in with an IC50 of 29 nM.

Turning to `c1ccc(-c2cc(-c3cccnc3)cc(NCCc3c[nH]c4ccccc34)n2)nc1` [Example 1.10, [2-(1H-Indol-3-yl)-ethyl]-[2,2′;4′,3″]terpyridin-6′-yl-amine], the IC50 stood at 57 nM. This IC50 is about 2-fold higher than that of the molecule before.

For `c1ccc(-c2cc(-c3cccnc3)cc(NCc3cccc4[nH]ccc34)n2)nc1` [Example 1.15, (1H-Indol-4-ylmethyl)-[2,2′;4′,3″]terpyridin-6′-yl-amine], the IC50 was 190 nM.

For the molecule `Oc1cccc(CNc2cc(-c3cncc(Br)c3)cc(-c3ccccn3)n2)c1` [Example 1.23, 3-[(5″-Bromo-[2,2′;4′,3″]terpyridin-6′-ylamino)-methyl]-phenol], the midpoint of inhibition, the IC50, lay at 214 nM.

As for `CNc1cc(-c2cncc(-c3ccc(C(=O)N4CCN(C)CC4)cc3)c2)cc(-c2ccccn2)n1` [Example 2.1, [4-(6′-Methylamino-[2,2′;4′,3″]terpyridin-5″-yl)-phenyl]-(4-methyl-piperazin-1-yl)-methanone], the IC50 was found to be 17 nM.

For the molecule `CNc1cc(-c2cncc(-c3ccc(N4CCN(C)CC4)cc3)c2)cc(-c2ccccn2)n1` [Example 2.2, Methyl-{5″-[4-(4-methyl-piperazin-1-yl)-phenyl]-[2,2′;4′,3″]terpyridin-6′-yl}-amine], the IC50 was 30 nM.

For `CNc1cc(-c2cncc(-c3cccc(N4CCCC4)c3)c2)cc(-c2ccccn2)n1` [Example 2.12, Methyl-[5″-(3-pyrrolidin-1-yl-phenyl)-[2,2′;4′,3″]terpyridin-6′-yl]-amine], 209 nM corresponded to half-maximal inhibition (IC50).

The molecule `CNc1cc(-c2cncc(-c3ccnc(OC)c3)c2)cc(-c2ccccn2)n1` [Example 2.17, (2′″-Methoxy-[2,2′;4′,3″;5″,4′″]quaterpyridin-6′-yl)-methyl-amine] returned an IC50 of 236 nM.

In the case of `CNc1cc(-c2cncc(-c3cccc(CN4CCN(C)CC4)c3)c2)cc(-c2ccccn2)n1` [Example 2.23, Methyl-{5″-[3-(4-methyl-piperazin-1-ylmethyl)-phenyl]-[2,2′;4′,3″]terpyridin-6′-yl}-amine], the IC50 was determined as 16 nM. Compared with the last molecule, the IC50 is about 15-fold lower.

As for `CNc1cc(-c2cncc(-c3ccc(CN4CCN(C(C)C)CC4)cc3)c2)cc(-c2ccccn2)n1` [Example 2.24, {5″-[4-(4-Isopropyl-piperazin-1-ylmethyl)-phenyl]-[2,2′;4′,3″]terpyridin-6′-yl}-methyl-amine], the IC50 was 14 nM.

Take `CNc1cc(-c2cncc(-c3ccc(CN4CCN(C)CC4)cc3)c2)cc(-c2ccccn2)n1` [Example 2.26, Methyl-{5″-[4-(4-methyl-piperazin-1-ylmethyl)-phenyl]-[2,2′;4′,3″]terpyridin-6′-yl}-amine]: the IC50 stood at 12 nM.

In the case of `CNc1cc(-c2cncc(-c3ccc(C(=O)N4CCN(C)CC4)cc3)c2)cc(-c2cccc(C)n2)n1` [Example 2.28, [4-(6-Methyl-6′-methylamino-[2,2′;4′,3″]terpyridin-5″-yl)-phenyl]-(4-methyl-piperazin-1-yl)-methanone], the IC50 turned out to be 52 nM.
